Results from publication PMC4259414, “HS-133, a novel fluorescent phosphatidylinositol 3-kinase inhibitor as a potential imaging and anticancer agent for targeted therapy” (Oncotarget, 2014).
Where two headings read alike, the source gives them in different places.

Assays:
HUVECs = assay: wound migration assay; type: cell-based, human; details: HUVECs, 1, 5, or 10 μM, 18 h
Protocol: To examine the effect of HS-133 on angiogenesis, a capillary tube formation assay using human umbilical vein endothelial cells (HUVECs) was performed. […] Cell migration is critical for the endothelial cells to form blood vessels during angiogenesis, and is necessary for tumor growth and metastasis. Thus, we conducted a wound migration assay to study the effect of HS-133 on cell migration. […] Considering that endothelial migration and tube formation have all highly relevant properties of angiogenesis, our results illustrated that HS-133 has the ability to block angiogenesis.
HUVECs plated on 60 mm-diameter culture dishes at 90% confluence, were wounded 2 mm in width with a sterile razor blade and marked at the injury line. […] HUVECs were allowed to migrate for 18 h and were rinsed with a serum-free medium, followed by fixing with absolute methanol and staining with Giemsa (Sigma-Aldrich). Migration was quantitated with counting the number of cells that moved beyond the reference line.

SkBr3 cells [1] = assay: cell viability MTT assay, SkBr3; type: cell-based; details: Homo sapiens, SK-BR-3, 48 h, SkBr3, 48 h, read-out: IC50, cell growth inhibition
Protocol: (§1) To determine whether HS-133 can function as a novel anticancer compound, we tested the ability of this compound to inhibit the growth of breast cancer cell lines (SkBr3, T47D, and MCF-7) using an MTT assay. The cells were exposed to various concentrations (0.5–50 μM) of HS-133 for 48 h. As shown in Fig. 3A-C, HS-133 inhibited the growth of all three breast cancer cell lines in a dose-dependent manner.
(§2) Cell viability was performed by an MTT assay. Briefly, the SkBr3, T47D, and MCF-7 cells were plated at a density of 1-5 × 10^3 cells/well in a 96-well plate for 48 h. The medium was removed, and the cells were treated with either DMSO as control or various concentrations of HS-133. The final concentration of DMSO in the medium was ≤ 0.1% (v/v). After the cells were incubated for 48 h, 20 μl of MTT solutions (2 mg/ml) was added to each well for another 4 h at 37°C. The formazan crystals that formed were dissolved in DMSO (200 μl/well) via constant shaking for 5 min. The plate was then read on a microplate reader at 540 nm. Three replicate wells were used for each analysis. The median inhibitory concentration (IC50, defined as the drug concentration at which cell growth was inhibited by 50%) was assessed from the dose-response curves.

SkBr3 cells [2] = assay: cell cycle analysis by PI staining and flow cytometry; type: cell-based, human; details: SkBr3, 1, 10, 50 μM, 24 h
Protocol: To examine the relationship between the growth inhibitory effect of HS-133 and cell cycle progression, we analyzed cell cycle distribution of SkBr3 cells by HS-133 using a flow cytometry. The SkBr3 cells were treated for 24 h with various concentrations of HS-133 (1, 10, 50 μM) and collected and stained with PI and then analyzed by FACS. […] The up-regulation of p27, cyclin dependent kinase (CDK) inhibitor, is related to G0/G1 cell cycle arrest and contributes to the down-regulation of cyclin D1 [31]. Thus, we evaluated the effect of HS-133 on the protein expressions of p27 and cyclin D1. HS-133 increased the expression of p27 while decreasing cyclin D1 expression (Fig. 4C).
The SkBr3 cells were plated in 100 mm-diameter culture dishes. On the following day, the cells were treated with various concentrations of HS-133 or 0.1% DMSO for 24 h. The floating and adherent cells were collected and fixed in cold 70% ethanol at 4°C overnight. […] The events were evaluated for each sample and the cell cycle distribution was analyzed using Cell Quest software (Becton Dickinson). The results were presented as the number of cells versus the amount of DNA, as indicated by the intensity of a fluorescence signal. […]

T47D cells = assay: cell viability MTT assay, T47D; type: cell-based; details: Homo sapiens, 48 h, read-out: IC50, cell growth inhibition
Protocol: as §1, §2

MCF-7 cells = assay: cell viability MTT assay, MCF-7; type: cell-based; details: Homo sapiens, MCF7, MCF-7, 48 h, read-out: IC50, cell growth inhibition
Protocol: as §1, §2

[3] = tissue distribution, tissue-to-plasma ratio; type: in vivo, BALB/c nude mice bearing SkBr3 xenograft; details: BALB/c nude, mouse, PO 10 mg/kg, 30 min post-dose
Source text: Various tissue concentrations, such as the heart, lung, liver, kidney, spleen, brain, and tumor in BALB/c nude mice bearing SkBr3 xenograft are shown in Fig. 9B. The ratios of each tissue-to-plasma (KP value) were 3.26, 4.18, 0.11, 1.99, 3.07, 4.99, and 2.06 for the heart, lung, liver, kidney, spleen, brain, and tumor, respectively. […] Thus, this high concentration level of HS-133 in tumor tissues may be contributed to in vivo efficacy in the SkBr3 xenograft model.
The heart, lung, liver, kidney, brain, spleen, and tumor were collected at 30 min post-dose from 3 different animals at each time point, rinsed with ice-cold saline, weighed and stored at −80°C until analysis. For HS-133 quantification, mouse tissues were homogenized with three times the volume of PBS. The homogenates were extracted by protein precipitation with acetonitrile. LC-MS/MS analysis was conducted as described for the plasma. The homogenate concentrations were converted to tissue concentrations for the calculations of each tissue-to-plasma ratio.

- IC50 (T47D cells): 9.4 µM
- IC50 (MCF-7 cells): 9.15 µM
- Kp at 0.5 h ([3]; brain, read-out: tissue-to-plasma ratio (KP value), brain): 4.99
- Kp at 0.5 h ([3]; heart, read-out: tissue-to-plasma ratio (KP value), heart): 3.26
- Kp at 0.5 h ([3]; kidney, read-out: tissue-to-plasma ratio (KP value), kidney): 1.99
- Kp at 0.5 h ([3]; liver, read-out: tissue-to-plasma ratio (KP value), liver): 0.11
- Kp at 0.5 h ([3]; lung, read-out: tissue-to-plasma ratio (KP value), lung): 4.18
- Kp at 0.5 h ([3]; spleen, read-out: tissue-to-plasma ratio (KP value), spleen): 3.07
- Kp at 0.5 h ([3]; tumor, read-out: tissue-to-plasma ratio (KP value), tumor): 2.06
Compound: CC(=O)Nc1ccc(-c2nc3c(c(=O)n(C)c(=O)n3C)n2-c2cccc(F)c2)cc1 [HS-133, N-(4-(7-(3-Fluorophenyl)-1,3-dimethyl-2,6-dioxo-2,3,6,7-tetrahydro-1H-purin-8-yl)phenyl) acetamide]
- cell migration (HUVECs): significantly inhibited
- IC50 (SkBr3 cells [1]): 46.8 µM
- cell cycle distribution (SkBr3 cells [2]): increased the number of cells in the G0/G1 phase
